Results on 25 molecules are retold here after US20230365592A1 (Agios Pharmaceuticals, Inc., priority 2022, published 2023).

The target of the assay is T1, human PAH with the R408W mutation (Homo sapiens, UniProt P00439, R408W).
T1 construct: expressed in transfected cells
T1 sequence (P00439 1-452 R408W): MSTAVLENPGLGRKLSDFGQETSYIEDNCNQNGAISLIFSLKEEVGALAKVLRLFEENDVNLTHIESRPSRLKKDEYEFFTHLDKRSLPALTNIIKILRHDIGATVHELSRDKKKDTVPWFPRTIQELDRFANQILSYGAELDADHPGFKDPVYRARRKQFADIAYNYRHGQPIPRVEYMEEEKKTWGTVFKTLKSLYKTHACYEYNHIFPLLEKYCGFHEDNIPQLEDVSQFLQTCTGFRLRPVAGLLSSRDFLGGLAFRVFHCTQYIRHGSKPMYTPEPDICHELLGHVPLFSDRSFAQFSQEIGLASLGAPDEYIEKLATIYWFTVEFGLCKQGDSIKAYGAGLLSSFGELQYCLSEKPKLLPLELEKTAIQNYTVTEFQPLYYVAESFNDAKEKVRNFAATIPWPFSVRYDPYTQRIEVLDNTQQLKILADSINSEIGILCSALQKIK
Put plainly: Cell Based Phenylalanine Flux Assay.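 Further: after compound treatment, cells received sepiapterin plus isotope-labelled Phenylalanine for 4 hours, then labelled Tyrosine in the medium was quantified, 10-point 2-fold dilution series run in duplicate.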 The conditions noted are these: A375 cells expressing human R408W PAH; 24 hrs compound incubation; 13C-Tyrosine by LC-MS; average where tested multiple times; read-out: AC50.

`c1ccc(-c2nnc(N3CCc4[nH]cnc4[C@H]3c3cc4ccccn4n3)o2)nc1` [Example 1291, (S)-2-(4-(pyrazolo[1,5-a]pyridin-2-yl)-6,7-dihydro-1H-imidazo[4,5-c]pyridin-5(4H)-yl)-5-(pyridin-2-yl)-1,3,4-oxadiazole]: the AC50 (in general, the midpoint of the concentration-response curve, whichever way the signal moves) was 500 to 1000 nM.
To `O=C(c1nnc(-c2cccnc2)o1)N1CCc2[nH]cnc2[C@H]1c1cc2c(Cl)cccn2n1` [Example 1292, (S)-(4-(4-chloropyrazolo[1,5-a]pyridin-2-yl)-6,7-dihydro-1H-imidazo[4,5-c]pyridin-5(4H)-yl)(5-(pyridin-3-yl)-1,3,4-oxadiazol-2-yl)methanone] belongs < 500 nM; to `O=C(c1nnc(-c2cccnc2)o1)N1CCc2[nH]cnc2[C@@H]1c1cc2c(Cl)cccn2n1` [Example 1293, (R)-(4-(4-chloropyrazolo[1,5-a]pyridin-2-yl)-6,7-dihydro-1H-imidazo[4,5-c]pyridin-5(4H)-yl)(5-(pyridin-3-yl)-1,3,4-oxadiazol-2-yl)methanone], 1000 to 5000 nM; to `O=C(c1nnc(-c2ncccc2F)o1)N1CCc2[nH]cnc2[C@@H]1c1cc2c(Cl)cccn2n1` [Example 1294, (R)-(4-(4-chloropyrazolo[1,5-a]pyridin-2-yl)-6,7-dihydro-1H-imidazo[4,5-c]pyridin-5(4H)-yl)(5-(3-fluoropyridin-2-yl)-1,3,4-oxadiazol-2-yl)methanone], 1000 to 5000 nM.
Take `O=C(c1nnc(-c2ncccc2F)o1)N1CCc2[nH]cnc2[C@H]1c1cc2c(Cl)cccn2n1` [Example 1295, (S)-(4-(4-chloropyrazolo[1,5-a]pyridin-2-yl)-6,7-dihydro-1H-imidazo[4,5-c]pyridin-5(4H)-yl)(5-(3-fluoropyridin-2-yl)-1,3,4-oxadiazol-2-yl)methanone]: the AC50 is < 500 nM.
As to `CC1(c2nnc(C(=O)N3CCc4[nH]cnc4[C@H]3c3cc4cccc(Cl)n4n3)o2)CC1` [Example 1296, (S)-(4-(7-chloropyrazolo[1,5-a]pyridin-2-yl)-6,7-dihydro-1H-imidazo[4,5-c]pyridin-5(4H)-yl)(5-(1-methylcyclopropyl)-1,3,4-oxadiazol-2-yl)methanone], the AC50 is < 500 nM.
Regarding `CC1(c2nnc(C(=O)N3CCc4[nH]cnc4[C@@H]3c3cc4cccc(Cl)n4n3)o2)CC1` [Example 1297, (R)-(4-(7-chloropyrazolo[1,5-a]pyridin-2-yl)-6,7-dihydro-1H-imidazo[4,5-c]pyridin-5(4H)-yl)(5-(1-methylcyclopropyl)-1,3,4-oxadiazol-2-yl)methanone], the AC50 was 1000 to 5000 nM.
To `COc1ccc(-c2nnc(C(=O)N3CCc4[nH]cnc4[C@@H]3c3cc4c(Cl)cccn4n3)o2)nc1` [Example 1298, (R)-(4-(4-chloropyrazolo[1,5-a]pyridin-2-yl)-6,7-dihydro-1H-imidazo[4,5-c]pyridin-5(4H)-yl)(5-(5-methoxypyridin-2-yl)-1,3,4-oxadiazol-2-yl)methanone] belongs 1000 to 5000 nM; to `O=C(c1nnc(-c2cnccn2)o1)N1CCc2[nH]cnc2[C@H]1c1cc2c(C(F)(F)F)cccn2n1` [Example 1300, (S)-(5-(pyrazin-2-yl)-1,3,4-oxadiazol-2-yl)(4-(4-(trifluoromethyl)pyrazolo[1,5-a]pyridin-2-yl)-6,7-dihydro-1H-imidazo[4,5-c]pyridin-5(4H)-yl)methanone], < 500 nM; to `O=C(c1nnc(-c2cnccn2)o1)N1CCc2[nH]cnc2[C@@H]1c1cc2c(C(F)(F)F)cccn2n1` [Example 1301, (R)-(5-(pyrazin-2-yl)-1,3,4-oxadiazol-2-yl)(4-(4-(trifluoromethyl)pyrazolo[1,5-a]pyridin-2-yl)-6,7-dihydro-1H-imidazo[4,5-c]pyridin-5(4H)-yl)methanone], > 5000 nM.
With `O=C(c1nnc(-c2cccnc2)o1)N1CCc2[nH]cnc2[C@H]1c1cc2c(C(F)(F)F)cccn2n1` [Example 1302, (S)-(5-(pyridin-3-yl)-1,3,4-oxadiazol-2-yl)(4-(4-(trifluoromethyl)pyrazolo[1,5-a]pyridin-2-yl)-6,7-dihydro-1H-imidazo[4,5-c]pyridin-5(4H)-yl)methanone], the AC50 is < 500 nM.
The result for `O=C(c1nnc(-c2cccnc2)o1)N1CCc2[nH]cnc2[C@@H]1c1cc2c(C(F)(F)F)cccn2n1` [Example 1303, (R)-(5-(pyridin-3-yl)-1,3,4-oxadiazol-2-yl)(4-(4-(trifluoromethyl)pyrazolo[1,5-a]pyridin-2-yl)-6,7-dihydro-1H-imidazo[4,5-c]pyridin-5(4H)-yl)methanone] reads 1000 to 5000 nM.
In the case of `Cc1ncccc1-c1nnc(C(=O)N2CCc3[nH]cnc3[C@H]2c2cc3c(C(F)(F)F)cccn3n2)o1` [Example 1304, (S)-(5-(2-methylpyridin-3-yl)-1,3,4-oxadiazol-2-yl)(4-(4-(trifluoromethyl)pyrazolo[1,5-a]pyridin-2-yl)-6,7-dihydro-1H-imidazo[4,5-c]pyridin-5(4H)-yl)methanone], the AC50 is < 500 nM.
The result for `O=C(c1nnc(-c2cccnc2)o1)N1CCc2[nH]cnc2[C@H]1c1cc2cccc(Cl)n2n1` [Example 1306, (S)-(4-(7-chloropyrazolo[1,5-a]pyridin-2-yl)-6,7-dihydro-1H-imidazo[4,5-c]pyridin-5(4H)-yl)(5-(pyridin-3-yl)-1,3,4-oxadiazol-2-yl)methanone] reads < 500 nM.
The result for `O=C(c1nnc(-c2cccnc2)o1)N1CCc2[nH]cnc2[C@@H]1c1cc2cccc(Cl)n2n1` [Example 1307, (R)-(4-(7-chloropyrazolo[1,5-a]pyridin-2-yl)-6,7-dihydro-1H-imidazo[4,5-c]pyridin-5(4H)-yl)(5-(pyridin-3-yl)-1,3,4-oxadiazol-2-yl)methanone] reads 1000 to 5000 nM; that for `Cc1cccc2cc([C@@H]3c4nc[nH]c4CCN3C(=O)c3nnc(-c4cccnc4)o3)nn12` [Example 1308, (S)-(4-(7-methylpyrazolo[1,5-a]pyridin-2-yl)-6,7-dihydro-1H-imidazo[4,5-c]pyridin-5(4H)-yl)(5-(pyridin-3-yl)-1,3,4-oxadiazol-2-yl)methanone], < 500 nM; that for `Cc1cccc2cc([C@H]3c4nc[nH]c4CCN3C(=O)c3nnc(-c4cccnc4)o3)nn12` [Example 1309, (R)-(4-(7-methylpyrazolo[1,5-a]pyridin-2-yl)-6,7-dihydro-1H-imidazo[4,5-c]pyridin-5(4H)-yl)(5-(pyridin-3-yl)-1,3,4-oxadiazol-2-yl)methanone], 1000 to 5000 nM.
The result for `Cc1cccn2nc([C@H]3c4nc[nH]c4CCN3C(=O)c3nnc(-c4ncccn4)o3)cc12` [Example 1310, (R)-(4-(4-methylpyrazolo[1,5-a]pyridin-2-yl)-6,7-dihydro-1H-imidazo[4,5-c]pyridin-5(4H)-yl)(5-(pyrimidin-2-yl)-1,3,4-oxadiazol-2-yl)methanone] reads 1000 to 5000 nM.
`Cc1cccn2nc([C@@H]3c4nc[nH]c4CCN3C(=O)c3nnc(-c4ncccn4)o3)cc12` [Example 1311, (S)-(4-(4-methylpyrazolo[1,5-a]pyridin-2-yl)-6,7-dihydro-1H-imidazo[4,5-c]pyridin-5(4H)-yl)(5-(pyrimidin-2-yl)-1,3,4-oxadiazol-2-yl)methanone]: the AC50 lay in the range of 500 to 1000 nM.
`O=C(c1nnc(-c2ncccn2)o1)N1CCc2[nH]cnc2[C@@H]1c1cc2c(F)cccn2n1` [Example 1312, (R)-(4-(4-fluoropyrazolo[1,5-a]pyridin-2-yl)-6,7-dihydro-1H-imidazo[4,5-c]pyridin-5(4H)-yl)(5-(pyrimidin-2-yl)-1,3,4-oxadiazol-2-yl)methanone]: the AC50 fell in the range of 1000 to 5000 nM.
`O=C(c1nnc(-c2ncccn2)o1)N1CCc2[nH]cnc2[C@H]1c1cc2c(F)cccn2n1` [Example 1313, (S)-(4-(4-fluoropyrazolo[1,5-a]pyridin-2-yl)-6,7-dihydro-1H-imidazo[4,5-c]pyridin-5(4H)-yl)(5-(pyrimidin-2-yl)-1,3,4-oxadiazol-2-yl)methanone]: the AC50 lay in the range of 500 to 1000 nM.
In the case of `Cn1cc(-c2nnc(C(=O)N3CCc4[nH]cnc4[C@H]3c3cc4c(C(F)F)cccn4n3)o2)cn1` [Example 1316, (S)-(4-(4-(difluoromethyl)pyrazolo[1,5-a]pyridin-2-yl)-6,7-dihydro-1H-imidazo[4,5-c]pyridin-5(4H)-yl)(5-(1-methyl-1H-pyrazol-4-yl)-1,3,4-oxadiazol-2-yl)methanone], the AC50 is < 500 nM.
With `Cn1cc(-c2nnc(C(=O)N3CCc4[nH]cnc4[C@@H]3c3cc4c(C(F)F)cccn4n3)o2)cn1` [Example 1317, (R)-(4-(4-(difluoromethyl)pyrazolo[1,5-a]pyridin-2-yl)-6,7-dihydro-1H-imidazo[4,5-c]pyridin-5(4H)-yl)(5-(1-methyl-1H-pyrazol-4-yl)-1,3,4-oxadiazol-2-yl)methanone], the AC50 was 1000 to 5000 nM.
Turning to `Cc1cccc2cc([C@@H]3c4nc[nH]c4CCN3C(=O)c3nnc(C4(C)CC4)o3)nn12` [Example 1319, (S)-(5-(1-methylcyclopropyl)-1,3,4-oxadiazol-2-yl)(4-(7-methylpyrazolo[1,5-a]pyridin-2-yl)-6,7-dihydro-1H-imidazo[4,5-c]pyridin-5(4H)-yl)methanone], the AC50 is < 500 nM.
Consider `CC1(c2nnc(C(=O)N3CCc4[nH]cnc4[C@@H]3c3cc4c(Cl)cccn4n3)o2)CC1` [Example 1320, (R)-(4-(4-chloropyrazolo[1,5-a]pyridin-2-yl)-6,7-dihydro-1H-imidazo[4,5-c]pyridin-5(4H)-yl)(5-(1-methylcyclopropyl)-1,3,4-oxadiazol-2-yl)methanone], for which the AC50 fell in the range of 1000 to 5000 nM.
